The source of these data is publication PMC10353061 (ACS Pharmacology & Translational Science, 2023).

The test system of one test is HCC1806 cells. Nature of the test: Cell proliferation by live-cell imaging (IncuCyte), HCC1806 TNBC cells. The following applies: 40 μM, 72 h. In kind it is cell-based. As for the experimental part:
(§1) As TNBC is a highly heterogeneous subgroup, including breast cancers with different molecular and phenotypic traits,[37] effects of compounds 5–10 on cell proliferation were also tested in additional TNBC cell lines, i.e., HCC1806 and HCC1937. As inhibitors of HCC1806 TNBC cells, compounds 5–10 were evaluated in parallel with compounds 3, ICG-001, and iCRT3 (Figures 10 and S12–S19, Supporting Information); as inhibitors of the HCC1937 TNBC cells, 5–10 were compared with 3 and iCRT3 (Figures 10, S20, and S21). Effects on cell proliferation were evaluated as above for the MDA-MB-231 TNBC cells at the latest time point of observation of 72 h.
(§2) Figure 10 Inhibition of MDA-MB-231, HCC1806, and HCC1937 TNBC cell growth by compounds 5–10 and reference compounds 3, […], and iCRT3 at 40 μM. Cell growth inhibition was quantified using the IncuCyte cell-by-cell analysis software, by comparison with the growth of DMSO-treated cells at 72 h, set at 100% (mean ± SD, n = 3, one-way ANOVA, **p ≤ 0.01, ****p ≤ 0.0001).
(§3) Cell proliferation of breast cancer cell lines upon continuous treatment with select compounds was evaluated by the real-time quantitative live-cell imaging system. MDA-MB-231 (1500 cells/well), HCC1806 (2000 cells/well), and HCC1937 (3000 cells/well) were seeded in 96-well plates, treated with increasing doses of selected compounds and images (5 images/well) were acquired every 8 h for 3 days at 10× magnification in an IncuCyte SX5 live-content imaging system (Essen Bioscience) at 37 °C with 5% CO2. Images were analyzed using IncuCyte cell-by-cell analysis software to detect and quantify live cells (phase-contrast). The number of cells at each time point was quantified using IncuCyte cell-by-cell analysis software, and cell growth was evaluated as the normalized ratio between counted cells at each time point normalized to those counted at time 0. Graph drawing and statistical analyses were performed in GraphPad Prism according to the statistical tests described in the figure legends.

The test system of another test is HCC1937 cells. Nature of the test: Cell proliferation by live-cell imaging (IncuCyte), HCC1937 TNBC cells. It counts as cell-based. The following applies: 40 μM, 72 h. As for the experimental part:
as §1, §2, §3

A further test has as its system MDA-MB-231 cells. Kind of test: Cell proliferation by live-cell imaging (IncuCyte), MDA-MB-231 TNBC cells. It counts as cell-based. Particulars: 40 μM, 48 and 72 h.
Source text: TNBC represents approximately 10–15% of all breast cancers and is the most aggressive subtype of breast cancer. Patients with TNBC have a poor outcome compared to the other subtypes of breast cancer. In the breast cancer tissue, β-catenin is overexpressed compared to the normal tissue. The overexpression of β-catenin is associated with TNBC and lymph node metastasis. […] There is a quest for the development of new therapies to treat TNBC. […] Effects on cell proliferation of MDA-MB-231 TNBC cells were evaluated by live-time cell imaging using the Incucyte S5 system.
as §2, §3

In test [1] the test system is Wnt/β-catenin signaling pathway. Nature of the test: Topflash/Fopflash luciferase report assay in HCT116 cells. In kind it is cell-based, human. The following applies: 30 μM. The source says: (§4) We synthesized derivatives 5–10 bearing 5-membered and 6-membered heterocyclic rings at the position 3′ or 4′ of the B phenyl ring. […] SW480 cells show higher Wnt activation compared to HCT116 cells.[28] […] In SW480 cells, compounds 5–10 were in the 1.75%(10)–7.32%(7) range of residual luciferase activity, except 6(28.46%), compared to 3(21.61%); in HCT116 cells, compounds 5–10 were in the 0.37%(7)–5.88%(5) range, compared to 3 (18.75%) (Table 1 and Figure 5).
(§5) Figure 5 Residual luciferase activity (%) by compounds 5–10 and reference compound 3 in SW480 cells (left panel) and HCT116 cells (right panel). Data are represented as the mean ± SD of three independent experiments, each performed in triplicate.
(§6) Briefly, the Topflash plasmid (Beyotime, Zhejiang, China) contains 7 TCF/LEF binding sites, while the Fopflash plasmid (Beyotime, Zhejiang, China) contains 6 mutated TCF/LEF binding sites, which are located in the upstream of the luciferase reporter. SW480 and HCT116 cell lines were cultured in 90% DMEM (HyClone, #SH30243.01) plus 10% fetal bovine serum (Gibco, #10270) and plasmocin (mpp-39-03, InvivoGen), respectively. The Topflash/Fopflash vector and plasmid pTK-renilla together were co-transfected to the cells. […] The Dual-Glo luciferase assay kit (Promega, #E1910) was used to measure the luminescence intensity (Figure 2).

Another test has as its system β-catenin. Nature of the test: Wnt reporter assay (TOP/FOP luciferase) in LiCl-treated HCT116 cells. In kind it is cell-based. The following applies: Homo sapiens, HCT-116, read-out: IC50, inhibition of β-catenin (luciferase reporter), LiCl 50 mM, 24 h. The protocol: Compounds 9 and 10 were assayed at increasing 10 and 100 nM and 1 μM concentrations in HCT116 cells transfected with luciferase-based vectors and treated with LiCl (50 mM). TOP TK is a well-established Wnt reporter vector containing eight sequences of Tcf/Lef binding site upstream of the timidine kinase (TK) minimal promoter, driving the expression of firefly luciferase.
Figure 6 HCT116 cells were transfected with luciferase-based vectors and treated with LiCl (50 mM) together with increasing concentrations of compound 9 or 10. Cells were harvested 24 h post-treatment and assayed for luciferase activity. Inhibitions were calculated as the luciferase/renilla ratio of the treated samples vs. the luciferase/renilla ratio of the untreated (control) samples. Data are represented as the mean ± SD of three independent experiments, each performed in triplicate. **p < 0.01, ***p < 0.001, n.s = not significant, as determined by analysis of variance (ANOVA).
Luciferase assays were performed as previously described.[58],[59] Briefly, HCT116 cells were transfected with Topflash reporter (M50 Super 8x TOPFlash, containing 8 repeats of TCF/LEF binding sites) or Fopflash reporter (M51 Super 8x FOPFlash, containing the mutated TCF/LEF binding sites) plasmids using the Dreamfect Gold Transfection Reagent (#DG80500, OZ Biosciences). […]
In general terms: In a reporter assay the amount or activity of a reporter protein is the signal.

Test [2] concerns Wnt/β-catenin signaling pathway. Nature of the test: Topflash/Fopflash luciferase report assay in SW480 cells. In kind it is cell-based. Particulars: 30 μM.
Source text: as §4, §5, §6

For orientation: IC50 means the midpoint of a concentration-inhibition curve. Regarding `O=S(=O)(Nc1ccc(-c2ccccn2)cc1)c1ccc(Br)cc1` [Compound 9, 4-Bromo-N-(4-(pyridin-2-yl)phenyl)benzenesulfonamide], in the test with HCC1806 cells, the “effect on HCC1806 cell growth” value is reported as “less effective”. In addition, the “effect on HCC1937 cell growth” value in the test with HCC1937 cells is reported as “less effective”. Besides, the “effect on MDA-MB-231 cell proliferation” value in the test on MDA-MB-231 cells was “less effective”. The “% Luciferase Activity HCT116 (residual)” value in test [1] was determined as 4.33%. The IC50 in the test on β-catenin was greater than 1000 nM. The “% Luciferase Activity SW480 (residual)” value in test [2] was 8.75%.
